In patent US20200360331A1, “COMPOSITIONS COMPRISING 15-HEPE AND/OR 15-HETrE AND METHODS OF TREATING OR PREVENTING CARDIOMETABOLIC DISEASE, METABOLIC SYNDROME, AND/OR RELATED DISEASES” (Afimmune Limited, priority 2019, published 2020):
Entries after “also recorded” stand apart in the source; their conditions may differ.

Assays:
[1] = test system: TGF-β induced epithelial mesenchymal transition (EMT) protein production; assay: TGF-β induced EMT protein production in HepG2 cells; type: cell-based, human; details: increasing doses for 1 hour, then 200 pM TGF-β for 48 hours, listed as 15-HEPE
Method: The effects of 15-HEPE on TGF-β-induced signaling and cellular responses were determined. To test the effect of 15-HEPE on TGF-β-induced signaling, the activities of 15-HEPE to regulate TGF-β-stimulated Smad2 phosphorylation and nuclear translocation, both of which are key signaling events leading to TGF-β-induced cellular responses, were tested. One important biological activity of TGF-β is transcriptional activation of genes responsible for epithelial-mesenchymal transition (EMT), which is a crucial event in wound healing, tissue fibrosis, and cancer progression. The effect of 15-HEPE on TGFβ-induced epithelial mesenchymal transition related proteins (such as fibronectin, PAI-1, and N-cadherin etc.) expression in HepG2 and […] cells were assessed. HepG2 cells (human hepatoma cell line) were treated in increasing doses of 15-HEPE stage II in DMEM containing 0.1% of FBS for 1 hour and continually stimulated with or without 200 picomolar (pM) of TGF-β for 48 hours.
HepG2 cells (human hepatoma cell line) were treated in increasing doses of 15-HEPE stage II in DMEM containing 0.1% of FBS for 1 hour and continually stimulated with or without 200 picomolar (pM) of TGF-β for 48 hours. The two panels shown in FIG. 18A are two separate experiments run under the same experimental conditions.

[2] = test system: TβR-II (type II TGF-β receptor); assay: Sucrose density gradient analysis in Mv1Lu cells, TβR-II; type: cell-based, mink
Method: (§1) Sucrose gradient ultracentrifugation and confocal microscopy were used to identify 15-HEPE induced microdomain translocation of TGF-β receptors by sucrose. Sucrose density gradient analysis of TGF-β receptors was conducted in the plasma membranes of Mv1Lu cells (mink lung epithelial cell) treated with 100 μM of 15-HEPE and an equal volume of DMSO (dimethyl sulfoxide) at 37° C. for 0, 1, 4, and 24 hours, and the cell lysates from these treated cells were subjected to sucrose density gradient ultracentrifugation. The sucrose gradient fractions were then analyzed by Western blot analysis using anti-TβR-I (type I TGF-β receptor), anti-TβR-II (type II TGF-β receptor), anti-TβR-III (type III TGF-β receptor, betaglycan), anti-EGFR (epidermal growth factor receptor), and anti-caveolin-1 antibodies. The lipid raft/caveolae, and non-lipid raft microdomain localization of TβR-I, TβR-II, TβR-III, EGFR and caveolin-1 in the plasma membrane of untreated cells or cells treated with 15-HEPE were assessed to determine the effects of 15-HEPE on the membrane microdomain localization of the TGF-β receptors.
A 15-HEPE sucrose density gradient analysis of TGF-β receptors was conducted in the plasma membranes of mink lung epithelial cell (Mv1 Lu) cells treated with 100 μM of 15-HEPE and an equal volume of dimethyl sulfoxide (DMSO) at 37° C. for 0, 1, 4, and 24 hours, and the cell lysates from these treated cells were subjected to sucrose density gradient ultracentrifugation. The sucrose gradient fractions were then analyzed by Western blot analysis using anti-TβR-I (type I TGF-β receptor—FIG. 18C), anti-TβR-II (type II TGF-β receptor—FIG. 18D), anti-TβR-III (type III TGF-β receptor, betaglycan—FIG. 18E), anti-EGFR (epidermal growth factor receptor—FIG. 18F), and anti-caveolin-1 antibodies (FIG. 18G). Fractions 4 to 5 contained lipid rafts/caveolae whereas fractions 7-10 were non-lipid raft fractions. […] Stars (★) indicate 15-HEPE increased abundance of TβR-I (24 hours) in the fraction in comparison with that of the control and shorter treatment durations (FIG. 18C). […] The triangles (▾) indicate translocation and decreased abundance of TβR-II in the fraction in comparison with control cells (FIG. 18D).

[3] = test system: EGFR (epidermal growth factor receptor); assay: Sucrose density gradient analysis in Mv1Lu cells, EGFR; type: cell-based, mink; details: 100 μM, 0, 1, 4 and 24 hours
Method: as §1, with “receptors. […]” for “receptors.”

NAFLD patients [4] = assay: Phase IIa NAFLD study: metabolic parameters and insulin resistance; type: in vivo, human
Method: (§2) The study was planned to include 96 evaluable patients with 32 patients randomized per treatment group.
HOMA-IR/Adipo-IR: HOMA-IR/Adipo-IR levels are a method of measuring insulin resistance. HOMA-IR is calculated by multiplying fasting plasma insulin (FPI) by fasting plasma glucose (FPG), then dividing by the constant 405. Adipo-IR is calculated by multiplying fasting non-esterified fatty acids (NEFA)×fasting insulin. Blood samples were taken to assess HOMA-IR and Adipo-IR at Visit 2/Baseline, Visit 3/Week 2, Visit 4/Week 4, Visit 6/Week 8, Visit 8/Week 12, Visit 10/Week16 and Follow up Visit 11/Week 20. All subjects were required to have been fasted for a minimum of 8 hours prior to blood sampling. If subjects had not fasted for a minimum of 8 hours, the duration of fasting time was recorded, and subjects encouraged to fast appropriately for the next clinical visit.
Exploratory analysis: The exploratory analysis included analysis of lipid and metabolic parameters including total cholesterol, triglycerides, very low-density lipoprotein cholesterol (VLDL-C), low density lipoprotein cholesterol (LDL-C), high density lipoprotein cholesterol (HDL-C), non-high-density lipoprotein cholesterol (non-HDL-C), remnant-like particle cholesterol (RLP-C), fasting glucose, insulin, free fatty acids and hemoglobin A1C (HbA1C). Additional exploratory analysis included high throughput lipidomics and proteomics.

NAFLD patients [5] = assay: Phase IIa NAFLD study: OWL Liver Care diagnostic test for NASH; type: in vivo, human
Description: as §2
OWL Liver Care is a test that was developed based on the plasma lipidomics in biopsy-confirmed NASH patients and provides high predictive values. OWL Liver Care has an area under the curve (AUC) of 0.88 for distinguishing NAFLD and normal liver patients and an AUC of 0.79 for distinguishing NAFLD without steatohepatitis and NASH patients.

[6] = NAFLD patients, 1 g or 2 g per day
[7] = baseline to Week 16, 1 g or 2 g per day vs placebo
[8] = 1 g per day, baseline diagnosis NASH
[9] = 1 g per day, baseline diagnosis No NAFLD
[10] = 1 g per day, baseline diagnosis Steatosis
[11] = 2 g per day, baseline diagnosis NASH
[12] = 2 g per day, baseline diagnosis No NAFLD
[13] = 2 g per day, baseline diagnosis Steatosis

For CC/C=C\CC(O)/C=C/C=C\C/C=C\C/C=C\CCCC(=O)O (stereo not shown) [DS102, 15-hydroxy-eicosa-5Z,8Z,11Z,13E,17Z-pentaenoic acid], the “TGF-β induced EMT (pro-fibrotic) protein production” value [1] was “blocks TGF-β induced EMT protein production; also recorded: blocked TGF-β induced pro-fibrotic protein production”, the TβR-II translocation ([2]; Mv1Lu cells, 100 μM, 1 to 4 hours) was “induced TβR-II translocation” and the TβR-II degradation ([2]; Mv1Lu cells, 100 μM, 24 hours) was “induce degradation”. For the same molecule, the “translocation and degradation of type II TGF-β receptors” value ([2]; summary, free acid or ethyl ester form) was “induced translocation and degradation of type II TGF-β receptors”, the “localization and abundance of EGFR” value [3] was “did not change the localization and abundance” and the “insulin sensitivity and glycemic control” value (NAFLD patients [4]; [6]) was “improvement”. For the same molecule, the “markers of metabolic overload” value (NAFLD patients [4]; [6]) was “statistically significant reduction”, the “insulin resistance indices (HOMA-IR and adipo-IR levels)” value (NAFLD patients [4]; Week 16, 1 g or 2 g per day vs placebo) was “reduction in HOMA-IR and adipo-IR levels” and the “insulin resistance indices (HOMA-IR and adipo-IR levels)” value (NAFLD patients [4]; Week 16, 2 g, Per Protocol Set (PPS)) was “significant improvements”. The “HbA1c levels, glycemic control” value (NAFLD patients [4]; [7]) was “clinically significant improvements”, the “insulin, glucose, and free fatty acid levels” value (NAFLD patients [4]; [7]) was “reduction” and the “OWL test change in diagnosis (Week 16 vs. baseline): Improvement, patients” value (“OWL test change … Improvement, patients” below) (NAFLD patients [5]; [8]) was 5. For the same molecule, the “OWL test change in diagnosis (Week 16 vs. baseline): Stable, patients” value (“OWL test change in diagnosis … Stable, patients” for short) (NAFLD patients [5]; [8]) was 14, the “OWL test change in diagnosis … Stable, patients” value (NAFLD patients [5]; [9]) was 3 and the “OWL test change in diagnosis (Week 16 vs. baseline): Worsening, patients” value (shortened to “OWL test change … Worsening, patients”) (NAFLD patients [5]; [9]) was 1. For the same molecule, the “OWL test change in diagnosis … Stable, patients” value (NAFLD patients [5]; [10]) was 2, the “OWL test change … Worsening, patients” value (NAFLD patients [5]; [10]) was 3 and the “OWL test change … Improvement, patients” value (NAFLD patients [5]; [11]) was 5. The “OWL test change in diagnosis … Stable, patients” value (NAFLD patients [5]; [11]) was 7, the “OWL test change in diagnosis … Stable, patients” value (NAFLD patients [5]; [12]) was 2*, ** and the “OWL test change … Worsening, patients” value (NAFLD patients [5]; [12]) was 1. The “OWL test change … Improvement, patients” value (NAFLD patients [5]; [13]) was 1, the “OWL test change in diagnosis … Stable, patients” value (NAFLD patients [5]; [13]) was 9 and the “OWL test change … Worsening, patients” value (NAFLD patients [5]; [13]) was 4. The “OWL liver care diagnosed NASH” value (NAFLD patients [5]; Week 16, dose dependent, compared to placebo) was “significantly improved and normalized”.
